Source: patent US10738028B2, “Spiro three-membered ring, spiro five-membered ring peptide deformylase inhibitor and use thereof in antibacteria and anti-tumor” (priority 2016, dated 2020)
Like-named read-outs stand apart in the source and are kept apart here.

Tests used:
Format in all cases: cell-based
[1] = tested on: Escherichia coli (including ESBLs, non-ESBLs); test: MIC, two-fold agar dilution (CLSI), clinical isolates
Outline: (§1)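 Samples are serially diluted two-fold in agar following CLSI guidance. Plates are then inoculated with the tested strains. The lowest inhibiting concentration is recorded as MIC.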

[2] = tested on: Enterococcus faecium (EFM); test: as above
Outline: as §1

[3] = tested on: methicillin-sensitive Staphylococcus epidermidis (MSSE); test: as above
Outline: as §1

[4] = tested on: methicillin-resistant Staphylococcus epidermidis (MRSE); test: as above
Outline: as §1

[5] = tested on: Enterococcus faecalis (EFA); test: as above
Outline: as §1

[6] = tested on: methicillin-resistant Staphylococcus aureus (MRSA); test: as above
Outline: as §1

[7] = tested on: Moraxella catarrhalis (BCA); test: as above
Outline: as §1

[8] = tested on: Streptococcus pneoumoniae (SPN); test: as above
Outline: as §1

[9] = tested on: methicillin-sensitive Staphylococcus aureus (MSSA); test: as above
Outline: as §1

[10] = tested on: HCT-116 colorectal cancer cell line; test: CCK-8 proliferation inhibition; conditions: Homo sapiens, 72 hours, CCK-8; for inhibition at 30 µM: HCT-116, 72 h, concentration of 30 μM
Outline: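 Growth inhibition is read by CCK-8 (1:10 dilution) after 72 h of compound exposure. HCT-116 cells grow in McCoy's 5A containing 10% newborn bovine serum at 2000 cells/well, with 1‰ DMSO as vehicle control.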

[11] = tested on: A549 lung cancer cell line; test: CCK-8 proliferation inhibition; conditions: Homo sapiens
Outline: (§2)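 Plating at 2000 cells/well, then incubation overnight at 37° C. Next, a range of compound concentrations for 72 hours (control 1‰ DMSO). Finally, medium decanted and CCK-8 diluted 1:10 added.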

[12] = tested on: MGC-803 gastric cancer cell line; test: CCK-8 proliferation inhibition; conditions: Homo sapiens
Outline: as §2

[13] = tested on: BEL-7402 liver cancer cell line; test: CCK-8 proliferation inhibition
Outline: as §2

CCCC[C@H](CC(=O)NO)C(=O)N1CC2(CC2)C[C@H]1C(=O)Nc1cc(C(C)(C)C)on1 [Example 55]
Anti-bacterial activity (MIC), strain ECO+ 15-1 ([1]; clinical isolate ECO+ 15-1): 32 µg/mL
Anti-bacterial activity (MIC), strain ECO+ 15-2 ([1]; clinical isolate ECO+ 15-2): > 32 µg/mL
Anti-bacterial activity (MIC), strain ECO+ 15-3 ([1]; clinical isolate ECO+ 15-3): > 32 µg/mL
Anti-bacterial activity (MIC), strain ECO+ 15-4 ([1]; clinical isolate ECO+ 15-4): 1 µg/mL
Anti-bacterial activity (MIC), strain ECO− 15-1 ([1]; clinical isolate ECO− 15-1): > 32 µg/mL
Anti-bacterial activity (MIC), strain ECO− 15-2 ([1]; clinical isolate ECO− 15-2): > 32 µg/mL
Anti-bacterial activity (MIC), strain ECO− 15-3 ([1]; clinical isolate ECO− 15-3): > 32 µg/mL
Anti-bacterial activity (MIC), strain ECO− 15-4 ([1]; clinical isolate ECO− 15-4): > 32 µg/mL
Anti-bacterial activity (MIC), strain EFM 15-1 ([2]; clinical isolate EFM 15-1): > 32 µg/mL
Anti-bacterial activity (MIC), strain EFM 15-2 ([2]; clinical isolate EFM 15-2): > 32 µg/mL
Anti-bacterial activity (MIC), strain EFM 15-3 ([2]; clinical isolate EFM 15-3): > 32 µg/mL
Anti-bacterial activity (MIC), strain EFM 15-4 ([2]; clinical isolate EFM 15-4): > 32 µg/mL
Anti-bacterial activity (MIC), strain EFM 15-5 ([2]; clinical isolate EFM 15-5): 0.5 µg/mL
Anti-bacterial activity (MIC), strain EFM 15-6 ([2]; clinical isolate EFM 15-6): 2 µg/mL
Anti-bacterial activity (MIC), strain MSSE 15-3 ([3]; clinical isolate MSSE 15-3): 1 µg/mL
Anti-bacterial activity (MIC), strain MSSE 15-4 ([3]; clinical isolate MSSE 15-4): 1 µg/mL
Anti-bacterial activity (MIC), strain MSSE 15-5 ([3]; clinical isolate MSSE 15-5): 1 µg/mL
Anti-bacterial activity (MIC), strain MSSE 15-6 ([3]; clinical isolate MSSE 15-6): 1 µg/mL
Anti-bacterial activity (MIC), strain MRSE 15-1 ([4]; clinical isolate MRSE 15-1): 1 µg/mL
Anti-bacterial activity (MIC), strain MRSE 15-2 ([4]; clinical isolate MRSE 15-2): 1 µg/mL
Anti-bacterial activity (MIC), strain MRSE 15-3 ([4]; clinical isolate MRSE 15-3): 1 µg/mL
Anti-bacterial activity (MIC), strain MRSE 15-7 ([4]; clinical isolate MRSE 15-7): 1 µg/mL
Anti-bacterial activity (MIC), strain EFA 15-1 ([5]; clinical isolate EFA 15-1): > 32 µg/mL
Anti-bacterial activity (MIC), strain EFA 15-2 ([5]; clinical isolate EFA 15-2): > 32 µg/mL
Anti-bacterial activity (MIC), strain EFA 15-3 ([5]; clinical isolate EFA 15-3): > 32 µg/mL
Anti-bacterial activity (MIC), strain EFA 15-4 ([5]; clinical isolate EFA 15-4): > 32 µg/mL
Anti-bacterial activity (MIC), strain EFA 15-5 ([5]; clinical isolate EFA 15-5): > 32 µg/mL
Anti-bacterial activity (MIC), strain EFA 15-6 ([5]; clinical isolate EFA 15-6): > 32 µg/mL
Anti-bacterial activity (MIC), strain EFA 15-9 ([5]; clinical isolate EFA 15-9): 8 µg/mL
Anti-bacterial activity (MIC), strain MRSA 15-1 ([6]; clinical isolate MRSA 15-1): 0.25 µg/mL
Anti-bacterial activity (MIC), strain MRSA 15-2 ([6]; clinical isolate MRSA 15-2): 0.5 µg/mL
Anti-bacterial activity (MIC), strain MRSA 15-3 ([6]; clinical isolate MRSA 15-3): 0.5 µg/mL
Anti-bacterial activity (MIC), strain MRSA 15-4 ([6]; clinical isolate MRSA 15-4): 0.5 µg/mL
Anti-bacterial activity (MIC), strain BCA 14-1 ([7]; clinical isolate BCA 14-1): 4 µg/mL
Anti-bacterial activity (MIC), strain BCA 14-4 ([7]; clinical isolate BCA 14-4): 4 µg/mL
Anti-bacterial activity (MIC), strain BCA 14-5 ([7]; clinical isolate BCA 14-5): 1 µg/mL
Anti-bacterial activity (MIC), strain BCA 14-6 ([7]; clinical isolate BCA 14-6): 2 µg/mL
Anti-bacterial activity (MIC), strain BCA 14-7 ([7]; clinical isolate BCA 14-7): 4 µg/mL
Anti-bacterial activity (MIC), strain BCA 14-8 ([7]; clinical isolate BCA 14-8): 4 µg/mL
Anti-bacterial activity (MIC), strain BCA 14-10 ([7]; clinical isolate BCA 14-10): 4 µg/mL
Anti-bacterial activity (MIC), strain SPN 16-2 ([8]; clinical isolate SPN 16-2): 1 µg/mL
Anti-bacterial activity (MIC), strain SPN 16-4 ([8]; clinical isolate SPN 16-4): 1 µg/mL
Anti-bacterial activity (MIC), strain MSSA 15-3 ([9]; clinical isolate MSSA 15-3): 0.5 µg/mL
Anti-bacterial activity (MIC), strain MSSA 15-4 ([9]; clinical isolate MSSA 15-4): 1 µg/mL
Anti-bacterial activity (MIC), strain MSSA 15-5 ([9]; clinical isolate MSSA 15-5): 1 µg/mL
Anti-bacterial activity (MIC), strain MSSA 15-6 ([9]; clinical isolate MSSA 15-6): > 32 µg/mL
inhibition at 30 µM ([10]; Table 5, read-out: Inhibition of proliferation, Colorectal cancer HCT116): ≥ 30%
inhibition at 30 µM ([10]; read-out: HCT116 inhibition rate/%): 30%
IC50 ([10]; HCT-116): 15.2 µM
inhibition at 30 µM ([11]; A549, 72 h, concentration of 30 μM): 49%
IC50 ([11]; A549, 72 hours): 12.1 µM
inhibition at 30 µM ([12]; MGC-803, 72 h, concentration of 30 μM): 33%
IC50 ([12]; MGC-803, 72 hours): 29.5 µM
inhibition at 30 µM ([13]; Homo sapiens, Bel-7402, 72 h, concentration of 30 μM): > 50%
IC50 ([13]; Homo sapiens, Bel-7402, 72 hours): 25.9 µM
Inhibition of proliferation, Liver cancer BEL-7402 ([13]; concentration of 30 μM, 72 hours, 30 µM): 59%
